Source: patent publication US8829033B2, “N-benzylamide substituted derivatives of 2-(acylamido)acetic acid and 2-(acylamido)propionic acids: potent neurological agents” (The University of North Carolina at Chapel Hill, priority 2009, dated 2014)
Like-named read-outs stand apart in the source and are kept apart here.

Columns and labels:
[1] = Neurological toxicity, rotorod test, mice (ip); assay type: in vivo; settings: male, CF No 1, mouse, in vivo
Protocol: (§1) Tests are conducted in groups of at least 8 mice or rats to determine the intrinsic neurotoxicity (neuromuscular impairment) after administration of the test compound by the route of administration to be used in the pharmacology studies. Neurotoxicity is determined in male CF No 1 mice by the rotarod procedure. Inability of the mouse to maintain its equilibrium in 3 trials during 1 min on this rotating rod (6 rpm) is used as an indication of such impairment. In Sprague-Dawley rats, minimal motor impairment (MMI) is determined by overt evidence of ataxia, abnormal gait, and stance.

Rat [2] = assay: Behavioral toxicity, rat (po); assay type: in vivo
Protocol: as §1

Mice [3] = assay: 6 Hz test, mice (ip); assay type: in vivo
Mice [4] = assay: Maximal electroshock seizure (MES) test, mice (ip);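 note: male albino CF No. 1 mice dosed ip, MES stimulus 50 mA at 60 Hz lasting 0.2 s, efficacy endpoint is loss of hind leg tonic extension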
Protocol: (§2) The maximal electroconvulsive shock (MES) test is regarded as a standard screen for anticonvulsant activity in terms of inhibition of seizure spread in generalized tonic-clonic seizures.
(§3) Groups of at least 8 male albino CF No. 1 mice or male albino Sprague-Dawley rats are treated with 10 mL/kg i.p. or 4 mL/kg p.o. of the test compound solution, respectively. The electrical stimulus in the MES test is 50 mA at 60 Hz for mice and 150 mA at 60 Hz for rats, both delivered for 0.2 sec. Abolition of the hind leg tonic extensor component of the seizure is used as the endpoint.

[5] = Behavioral toxicity, rat (po); assay type: in vivo; settings: Sprague-Dawley, in vivo, po, read-out: Rat (po) Tox, TD50
Protocol: as §1

Rat [6] = assay: Maximal electroshock seizure (MES) test, rat (po); assay type: in vivo
Protocol: as §2, §3

Mice [7] = test system: Mice
Protocol: as §2, §3

Mice [8] = assay: Neurological toxicity, rotorod test, mice (ip); assay type: in vivo
Protocol: as §1

Mice [9] = assay: Formalin test (mice, ip); assay type: in vivo; settings: for Formalin Assay Acute (%) / Formalin Assay Inflam. (%): mice, ip
Protocol: Compounds of the present invention were active in treating pain in a formalin test carried out in accordance with standard techniques, as described in S. Hunskaar et al., J. Neurosci. Methods 14: 69-76 (1985). Briefly, 0.5% formalin is injected into the mouse hind paw to elicit a bi-phasic licking response, where the first acute phase is thought to correspond to the direct stimulation of peripheral fibers and the second (inflammatory) phase is caused by the release of inflammatory mediators.
Spinal/supraspinal plasticity of nociception is considered as a molecular basis for neuropathic pain particularly during the second (late) phase of the test (Dubuisson & Dennis, 1977; Coderre et al., 1990; Coderre & Melzack, 1992), during which most clinically used drugs against neuropathic pain are active.

Rats [10] = assay: Hippocampal kindling test, rats (ip); assay type: in vivo; settings: rats
Protocol: The kindling model provides a tool to predict a test compound's activity in complex partial seizures.
Male albino Sprague-Dawley rats (n=8) are kindled to a Stage 5 behavioral seizure. They are treated with an appropriate i.p. dose of the test compound after a 1-week, stimulus-free period. The test compound is evaluated for its effect on kindled motor seizures (seizures scores of 4 and 5), limbic behavior seizures (seizure scores between 1 and 3) and after-discharge duration. After 15 min, each rat is stimulated every 30 min for 3-4 h. Following each stimulation, individual seizure scores and after-discharge duration are recorded. The group mean and standard error of the mean (SEM) are calculated for each parameter.

Mice [11] = settings: rotorod, Ref 30, 16, 32; cited from earlier work
Mice [12] = settings: Ref 30, 16, 32; cited from earlier work
Rats [13] = assay: Partial sciatic nerve ligation model (rats, ip); assay type: in vivo; settings: dose 12 (mg), at 1 h, p < 0.05
Rat [14] = settings: Ref 16, 32; cited from earlier work
Rat [15] = settings: Ref 16, 32; cited from earlier work; remark: listed apart in the source
[16] = Table b501, orally, behavioral toxicity
[17] = Table b501, ip, protective index (TD50/ED50)
[18] = Rattus norvegicus, read-out: Rat (po) MES, ED50

Structure (SMILES): COC[C@@H](NC(C)=O)C(=O)NCc1ccc(Oc2cccc(F)c2)cc1 [(R)-12, (R)—N-4′-((3″-Fluoro)phenoxy)benzyl 2-N-Acetamido-3-methoxypropionamide]
- TD50 ([1]; rotorod test, read-out: Mice (ip) Tox, Td50): 23 mg/kg
- Rat (po) Tox, TD50 (Rat [2]; [16]): >10 [0.25-4.0] mg/kg
- ED50 (Mice [3]; Mus musculus, ip, intraperitoneally): ~10 mg/kg
- melting point: 125 to 126 °C
- Mice (ip) MES, ED50 (Mice [4]; Table b501, intraperitoneally): 5.5 [0.25] (3.2-6.3) mg/kg
- Mice (ip) PI (Mice [4]; [17]): 4.2

Structure (SMILES): COC[C@@H](NC(C)=O)C(=O)NCc1ccc(C2(C(F)(F)F)N=N2)cc1 [(R)-9, (R)-2-Acetamido-3-methoxy-N-(4-(3-(trifluoromethyl)-3H-diazirin-3-yl)benzyl)propanamide]
- TD50 ([1]; read-out: Mice (ip) Tox, TD50): 68 mg/kg
- TD50 [5]: > 30 mg/kg
- ED50 (Rat [6]; read-out: Rat (po) MES, ED50): > 30 mg/kg
- Mice (ip) MES, ED50 (Mice [7]): 15.05 [0.25] (13.93- 16.39)
- melting point: 195 °C (dec.)
- Mice (ip) PI (Mice [4]; ip, PI=TD50/ED50): 4.4

Structure (SMILES): COCc1ccc(CNC(=O)[C@@H](COC)NC(C)=O)cc1 [(R)-8]
- TD50 ([1]; read-out: Mice (ip) Tox, TD50): 180 mg/kg
- TD50 [5]: > 500 mg/kg
- ED50 (Rat [6]; [18]): 45 mg/kg

Structure (SMILES): COC[C@@H](NC(C)=O)C(=O)NCc1ccc(OCc2cccc(F)c2)cc1 [(R)-10, (R)-2-Acetamido-N-(4-(3-fluorobenzyloxy)benzyl)-3-methoxypropanamide]
- Mice (ip) Tox, TD50 (Mice [8]; Table b500, rotorod test): 26 [0.5] mg/kg
- Mice (ip) Tox, TD50 (Mice [8]; Table b502, rotorod test): 26 [0.5] mg/kg
- Mice (ip) Tox, Td50 (Mice [8]; rotorod test): 26 [0.5] mg/kg
- Rat (po) Tox, TD50 (Rat [2]; Table b500, orally, behavioral toxicity): >500 [0.5] mg/kg
- Rat (po) Tox, TD50 (Rat [2]; [16]): >500 [0.5] mg/kg
- Rat (po) Tox, TD50 (Rat [2]; Table b502, orally, behavioral toxicity): >500 [0.5] mg/kg
- Rat (po) Tox, TD50 (Rat [2]; po): > 280 mg/kg
- Formalin Test (mice, ip) Inflammatory (%) (Mice [9]; duration of licking as percent of control, late phase, dose 15 mg/kg): 44 (10) %
- Formalin Assay Acute (%) (Mice [9]; dose 25 (mg)): 80%
- Formalin Assay Inflam. (%) (Mice [9]; dose 25 (mg)): 70%
- Mice (ip) 6 Hz, ED50 (Mice [3]; Table b500, intraperitoneally): ~10 [0.25] mg/kg
- Mice (ip) 6 Hz, ED50 (Mice [3]; Table b501, intraperitoneally): ~10 [0.25] mg/kg
- Mice (ip) 6 Hz, ED50 (Mice [3]; Table b502, intraperitoneally): ~10 [0.25] mg/kg
- Rat (po) MES, ED50 (Rat [6]): 4.9 [1]
- Rat (po) PI (Rat [6]; PI=TD50/ED50): >57
- ED50 (Rat [6]; Rattus norvegicus, Table b500, orally, read-out: Rat (po) MES, ED50): 14 mg/kg
- ED50 (Rat [6]; Rattus norvegicus, Table b502, orally, read-out: Rat (po) MES, ED50): 14 mg/kg
- ED50 (Rat [6]; Rattus norvegicus, read-out: Rat (po) MES, ED50, Table b501, orally): 1.4 mg/kg
- Rat (po) PI (Rat [6]; Table b500, protective index (TD50/ED50)): >36
- Rat (po) PI (Rat [6]; Table b501, protective index (TD50/ED50)): >36
- Rat (po) PI (Rat [6]; Table b502, protective index (TD50/ED50)): >36
- Preliminary Hippocampal Kindling Test (Rats) After discharge duration, Drug (Rats [10]; after drug (pre-drug duration in neighbouring column)): 0 s
- Preliminary Hippocampal Kindling Test (Rats) Seizure Score, Drug (Rats [10]; after drug (pre-drug score in neighbouring column)): 0
- Mice (ip) PI (Mice [4]; Table b500, ip, protective index (TD50/ED50)): 2
- Mice (ip) MES, ED50 (Mice [4]; Table b501, intraperitoneally): 13 [0.25] mg/kg
- Mice (ip) PI (Mice [4]; [17]): 2
- Mice (ip) MES, ED50 (Mice [4]; Table b502, intraperitoneally): 13 [0.25] mg/kg
- Mice (ip) PI (Mice [4]; Table b502, ip, protective index (TD50/ED50)): 2
- Mice (ip) PI (Mice [4]; ip, PI=TD50/ED50): ~3.1

Structure (SMILES): COC[C@@H](NC(C)=O)C(=O)NCc1ccc(OCc2cccc(F)c2)cc1 [(R)-3, (R)-2-Acetamido-N-(4-(3-fluorobenzyloxy)benzyl)-3-methoxypropanamide]
- TD50 ([1]; read-out: Mice (ip) Tox, TD50): 26 mg/kg
- Mice (ip) Tox, TD50 (Mice [11]): 27 [0.25] mg/kg
- Formalin Assay Acute (%) (Mice [9]; dose 15 (mg)): 35%
- Formalin Assay Inflam. (%) (Mice [9]; dose 15 (mg)): 44%
- Rat (po) PI (Rat [6]; PI=TD50/ED50): >36
- Mice (ip) MES, ED50 (Mice [4]; ip): 13 [0.25]
- Mice (ip) PI (Mice [4]; ip, PI=TD50/ED50): ~2
- Mice (ip) Mes, ED50 (Mice [12]): 4.5 [0.5] mg/kg
- Partial Sciatic Nerve Ligation Assay: attenuation of mechanical allodynia (Rats [13]): 11.2 fold attentaution of mechanical
- Rat (po) MES, ED50 (Rat [14]): 3.9 [2.0] mg/kg
- Rat (po) Tox, TD50 (Rat [15]): >500 mg/kg

Structure (SMILES): COCCCc1ccc(CNC(=O)[C@@H](COC)NC(C)=O)cc1 [(R)-7]
- TD50 ([1]; read-out: Mice (ip) Tox, TD50): 62 mg/kg
- TD50 [5]: > 500 mg/kg
- ED50 (Rat [6]; [18]): 16 mg/kg

Structure (SMILES): COC[C@@H](NC(C)=O)C(=O)NCc1ccc(OC(F)(F)F)cc1 [(R)-4]
- TD50 [5]: > 30 mg/kg
- Formalin Assay Acute (%) (Mice [9]; dose 4.0 (mg)): 52%
- Formalin Assay Inflam. (%) (Mice [9]; dose 4.0 (mg)): 50%
- ED50 (Rat [6]; [18]): > 30 mg/kg
- Mice (ip) PI (Mice [4]; ip, PI=TD50/ED50): ~9.3

Structure (SMILES): CC(=O)N[C@@H](C)C(=O)NCc1ccccc1 [(S)-4, reference compound]
- Mice (ip) Tox, TD50 (Mice [11]): 630 mg/kg
- Mice (ip) Mes, ED50 (Mice [12]): 8.0 mg/kg
